Laboratory results: the supplement of paper PMC5579334
± gives the standard deviation of the averaged measurements.

Key:
[1] = test system: HSC1 (primary human Schwann cells); assay: drug sensitivity score (DSS, CellTox-Green cytotoxicity, 72 h) (DSS (dimensionless)); higher = more cytotoxic; extreme values may be limits of the assay
Outline: (§1)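 MPNST cell lines and primary human Schwann cells were grown for 72 h at 37 °C in 384-well plates containing five 10-fold compound dilutions. CellTox-Green, added before seeding at a final 1:1000 dilution, gave fluorescence from DNA released by disrupted cells, and signals were scaled to vehicle and positive-control wells. Curves were fitted with a four-parameter logistic model. Drug sensitivity score and relative IC50 come from these fits, with IC50 censored at the top concentration.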

[2] = test system: ST8814; assay: as above
Outline: as §1

[3] = test system: STS26T; assay: as above
Outline: as §1

[4] = test system: S1507-2; assay: as above
Outline: as §1

[5] = test system: HSC2 (primary human Schwann cells); assay: as above
Outline: as §1

[6] = test system: HS-PSS; assay: as above
Outline: as §1

[7] = test system: HSC1 (primary human Schwann cells); assay: drug sensitivity score (DSS, CellTiter-Glo viability, 72 h) (DSS (dimensionless)); higher = more sensitive; extreme values may be limits of the assay
Outline: (§2)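 Viability of MPNST cell lines and primary human Schwann cells was read as CellTiter-Glo ATP luminescence after 72 h at 37 °C, 5% CO2, in 384-well plates seeded with 750–1000 cells per well. Each compound had been preprinted at five concentrations in 10-fold steps. Signals were scaled between vehicle and positive-control wells, duplicates averaged where present, and fitted with four-parameter logistic curves. Drug sensitivity score and relative IC50 (censored at the top concentration) come from those fits, and percent inhibition is taken at the top concentration.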

[8] = test system: ST8814; assay: as above
Outline: as §2

[9] = test system: S462; assay: as above
Outline: as §2

[10] = test system: STS26T; assay: as above
Outline: as §2

[11] = test system: S1507-2; assay: as above
Outline: as §2

[12] = test system: HSC2 (primary human Schwann cells); assay: as above
Outline: as §2

[13] = test system: HS-Sch-2; assay: as above
Outline: as §2

[14] = test system: HS-PSS; assay: as above
Outline: as §2

[15] = test system: YST-1; assay: as above
Outline: as §2

[16] = test system: HSC1 (primary human Schwann cells); assay: % inhibition of CellTiter-Glo viability at highest tested concentration (72 h), relative to DMSO and benzethonium chloride controls; higher = more inhibition
Outline: as §2

[17] = test system: ST8814; assay: as above
Outline: as §2

[18] = test system: S462; assay: as above
Outline: as §2

[19] = test system: STS26T; assay: as above
Outline: as §2

[20] = test system: S1507-2; assay: as above
Outline: as §2

[21] = test system: HSC2 (primary human Schwann cells); assay: as above
Outline: as §2

[22] = test system: HS-Sch-2; assay: as above
Outline: as §2

[23] = test system: HS-PSS; assay: as above
Outline: as §2

[24] = test system: YST-1; assay: as above
Outline: as §2

Row | SMILES | drug sensitivity score [1] | drug sensitivity score [2] | drug sensitivity score [3] | drug sensitivity score [4] | drug sensitivity score [5] | drug sensitivity score [6] | drug sensitivity score [7] | drug sensitivity score [8] | drug sensitivity score [9] | drug sensitivity score [10] | drug sensitivity score [11] | drug sensitivity score [12] | drug sensitivity score [13] | drug sensitivity score [14] | drug sensitivity score [15] | % inhibition [16] [%] | % inhibition [17] [%] | % inhibition [18] [%] | % inhibition [19] [%] | % inhibition [20] [%] | % inhibition [21] [%] | % inhibition [22] [%] | % inhibition [23] [%] | % inhibition [24] [%]
1 | O=C(/C=C/c1cccnc1)NCCCCC1CCN(C(=O)c2ccccc2)CC1 [Daporinad] (max concentration tested 1000 nM) | 0 | 0 | 9.24 | 0 | 0 | 0 | 18.8 | 24.1 | 28.6 ± 0.7 | 16.4 | 15.02 ± 0.15 | 21.9 | 29.8 | 25 | 31.1 | 70.9 | 93.2 | 100.3 ± 0.6 | 95.5 | 87.9 ± 6.3 | 83.4 | 101 | 90.9 | 101
2 | CC(C)C(=O)Nc1ccc([N+](=O)[O-])c(C(F)(F)F)c1 [Flutamide] (max concentration tested 10000 nM) | 0 | 0 | 0 | 0 | 0 | 0 | 0 | 0 | 0 | 0 | 0 | 0 | 0 | 0 | 0 | 9.44 | 4.3 | 5.56 ± 0.56 | 9.3 | 4.01 ± 0.74 | 5.2 | -3.98 | 10.5 | -0.22
3 | CC(C)(C)c1nc(-c2cccc(NS(=O)(=O)c3c(F)cccc3F)c2F)c(-c2ccnc(N)n2)s1 [Dabrafenib] (max concentration tested 2500 nM) | 0.888 | 0 | 0 | 0 | 0.888 | 0.89 | 4.42 | 1.19 | 1.99 ± 0.58 | 3.99 | 0.291 ± 0.41 | 5.89 | 0.66 | 0.78 | 0.2 | 39.9 | 33 | 35.5 ± 1.5 | 31.1 | 17.6 ± 9.1 | 31.7 | 24.5 | 26.6 | 17.6
4 | CCOc1cc2ncc(C#N)c(Nc3ccc(OCc4ccccn4)c(Cl)c3)c2cc1NC(=O)/C=C/CN(C)C [Neratinib] (max concentration tested 1000 nM) | 0 | 0 | 0 | 0 | 0 | 0 | 4.77 | 3.74 | 5.12 ± 0.93 | 3.09 | 4 ± 1.6 | 5.85 | 5.51 | 6.05 | 2.34 | 70.6 | 40.5 | 64.8 ± 7.9 | 38.6 | 49.1 ± 15 | 75.8 | 65.3 | 65.7 | 46.7
5 | Cc1nc(C(=O)NCC(=O)O)c(O)c2ccc(Oc3ccccc3)cc12 [FG-4592] (max concentration tested 10000 nM) | 0 | 0 | 0 | 0 | 0 | 0 | 0.0901 | 0 | 0 | 0 | 0 | 0.0248 | 5.13 | 5.17 | 0 | 13.3 | 7.03 | -7 ± 5.2 | 0.0946 | -0.77 ± 1.2 | 12.3 | 74.7 | 49 | -7.68
6 | CNC(=O)c1ccccc1Sc1ccc2c(/C=C/c3ccccn3)n[nH]c2c1 [Axitinib] (max concentration tested 10000 nM) | 1.46 | 0.581 | 6.29 | 1.12 ± 1.1 | 0.0899 | 0 | 7.23 | 5.17 | 6.12 ± 0.37 | 5.81 | 4.27 ± 3.4 | 6.51 | 6.01 | 2.26 | 4.01 | 66.9 | 52.7 | 52.1 ± 6.1 | 61.1 | 38.5 ± 19 | 53.8 | 67.8 | 38 | 39.9
7 | COC(=O)C[C@](O)(CCCC(C)(C)O)C(=O)O[C@@H]1C(OC)=C[C@]23CCCN2CCc2cc4c(cc2[C@H]13)OCO4 [Omacetaxine] (max concentration tested 10000 nM) | 8.49 | 5 | 15 | 13.4 ± 3 | 11.7 | 1.24 | 25.4 | 25.2 | 31.4 ± 0.81 | 27.9 | 25.33 ± 0.068 | 26.6 | 26 | 23.1 | 36.4 | 92 | 88.6 | 99.121 ± 0.0091 | 98.6 | 98.539 ± 0.044 | 96.2 | 102 | 80.3 | 99.5
8 | CCC1(c2ccc(N)cc2)CCC(=O)NC1=O (configuration not stated) [Aminoglutethimide] (max concentration tested 10000 nM) | 0 | 0 | 0 | 0 | 0 | 0 | 0 | 0 | 0 | 0 | 0 | 0 | 0 | 0 | 0 | 8.78 | -3.31 | -7.67 ± 7.8 | 2.67 | 3.35 ± 1.2 | -6.11 | 3.62 | 1.47 | -9.69
9 | CC(C)(C)NC(=O)[C@H]1CC[C@H]2[C@@H]3CC[C@H]4NC(=O)C=C[C@]4(C)[C@H]3CC[C@]12C [Finasteride] (max concentration tested 10000 nM) | 0 | 0 | 0 | 0.774 ± 1.1 | 0 | 0 | 0 | 0 | 0 | 0 | 0 | 0 | 0 | 0 | 0 | 0.189 | 6.23 | 2.86 ± 8.6 | 9.35 | -1.69 ± 4.2 | 0.769 | 8.19 | 4.42 | 2.29
10 | C[C@H]1C[C@@H]2[C@H]([C@@H](O)C[C@@]3(C)[C@H]2CC[C@]3(O)C(=O)CO)[C@@]2(C)C=CC(=O)C=C12 [Methylprednisolone] (max concentration tested 10000 nM) | 0 | 0 | 0 | 0 | 0 | 0 | 0 | 4.82 | 0 | 0 | 3.26 ± 4.4 | 0 | 0.61 | 0 | 0.96 | 7.99 | 22.4 | 4.77 ± 4.3 | 4.35 | 17.3 ± 7 | 3.94 | 7.62 | 3.22 | 19.3
11 | Cc1cc2c(C(C)C)c(O)c(O)c(C=O)c2c(O)c1-c1c(C)cc2c(C(C)C)c(O)c(O)c(C=O)c2c1O [AT 101] (max concentration tested 100000 nM) | 4.09 | 0.0013 | 0 | 0 | 0 | 2.34 | 16.2 | 12.6 | 16 ± 1.1 | 11.8 | 8.69 ± 1.2 | 20.2 | 15.1 | 9.43 | 15.2 | 94.7 | 95.4 | 95.03 ± 0.8 | 96.6 | 95.6 ± 1.6 | 93.6 | 101 | 101 | 101
12 | O=C(Nc1cccnc1)N1CCC(Cc2cccc(Oc3ccc(C(F)(F)F)cn3)c2)CC1 [PF-3845] (max concentration tested 10000 nM) | 0 | 0 | 0 | 0 | 0.053 | 0 | 2.77 | 0.0881 | 0.985 ± 0.1 | 1.18 | 0 | 3.19 | 4.52 | 7.9 | 0.86 | 33.5 | 11.5 | 20.3 ± 0.84 | 24.2 | 2.03 ± 3.1 | 35.3 | 79 | 79.6 | 25.5
13 | CCNC(=O)CCC/C=C\C[C@@H]1[C@@H](/C=C/[C@@H](O)CCc2ccccc2)[C@H](O)C[C@@H]1O [Bimatoprost] (max concentration tested 5500 nM) | 0 | 0 | 0 | 0 | 0 | 0.89 | 0 | 0 | 0.502 ± 0.71 | 0 | 0.00145 ± 0.0021 | 0 | 0.89 | 0.89 | 0 | 2.26 | 2.33 | 9.55 ± 12 | 7.31 | 0.42 ± 0.85 | 9.6 | -3.66 | -11.6 | 7.41
